Reference: patent publication US20100092497A1, “METHODS OF IMMUNE OR HAEMATOLOGICAL ENHANCEMENT, INHIBITING TUMOUR FORMATION OR GROWTH, AND TREATING OR PREVENTING CANCER” (priority 2006, published 2010)

Assays:
[1] = test system: EL-4 T cell thymic lymphoma; assay: EL-4 tumour challenge in mice fed experimental diets (tumour growth, rejection, response to paclitaxel); format: in vivo, C57BL/6 mice; settings: Example 1; control diet; paclitaxel 30 mg/Kg i.p. at tumours ~0.6 cm
EL-4 target cells = assay: Anti-tumour cytolytic activity of splenocytes (CTL assay); format: cell-based, mouse; settings: Example 4; high dose vitamin D (45.2 mg/Kg) by itself or Fe-saturated Lf
Protocol: Splenocytes were harvested 28 days following tumour cell injection, as specified. They were incubated at 37° C. with EL-4 target cells in graded E:T ratios in 96-well round-bottom plates. After a 4-hour incubation, 50 μl of supernatant was collected, and lysis was measured using the Cyto Tox 96 Assay Kit (Promega, Madison, Wis., USA). Background controls for non-specific target and effector cell lysis were included. After background subtraction, percentage of cell lysis was calculated using the formula: 100×(experimental-spontaneous effector-spontaneous target/maximum target-spontaneous target).

[2] = daily for several years; cited from earlier work

Structure (SMILES): CC(=O)O[C@H]1C(=O)[C@@]2(C)[C@H]([C@H](OC(=O)c3ccccc3)[C@]3(O)C[C@H](OC(=O)[C@H](O)[C@@H](NC(=O)c4ccccc4)c4ccccc4)C(C)=C1C3(C)C)[C@]1(OC(C)=O)CO[C@@H]1C[C@@H]2O [paclitaxel, reference compound]
- tumour response to paclitaxel [1]: completely resistant

Structure (SMILES): C=C1CC[C@H](O)C/C1=C/C=C1\CCC[C@]2(C)[C@@H]([C@H](C)CCCC(C)C)CC[C@@H]12 [vitamin D, cholecalciferol, reference compound]
- increase in anti-tumour cytolytic activity of splenocytes, agent by itself (EL-4 target cells): 1.9 fold
- daily ingestion after which most cases of toxicity were reported [2]: greater than 50,000 IU
